tested on: SARS-CoV-2; experiment: microbe, parasite or virus in culture; type: cell-based; details: Severe acute respiratory syndrome coronavirus 2, HeLa-ACE2, 24 h, read-out: EC50, μM (Hela)

Q: For `CC(C)C[C@H](NC(=O)OCc1cccc(Cl)c1)C(=O)N[C@@H](C[C@@H]1CCNC1=O)C(=O)COC(=O)Cc1ccccc1` [Compound 121, (S)-3-((S)-2-((((3-chlorobenzyl)oxy)carbonyl)amino)-4-methylpentanamido)-2-oxo-4-((S)-2-oxopyrrolidin-3-yl)butyl 2-phenylacetate], which EC50 is on record?
A: > 1 µM

same assay, conditions: Severe acute respiratory syndrome coronavirus 2; HeLa-ACE2 cells infected with SARS-CoV-2, 24 h, immunofluorescence of infected cells; read-out: EC50, μM (Hela)

Q: For `CC(C)(C)C[C@H](NC(=O)C(=O)Nc1ccc(OC(F)(F)F)cc1)C(=O)N[C@@H](C[C@@H]1CCCNC1=O)C(=O)CO` [Compound 101, N^1-((S)-1-(((S)-4-hydroxy-3-oxo-1-((S)-2-oxopiperidin-3-yl)butan-2-yl)amino)-4,4-dimethyl-1-oxopentan-2-yl)-N^2-(4-(trifluoromethoxy)phenyl)oxalamide], which EC50 is on record?
A: 0.05 to 0.2 µM

Q: `CC(C)(C)C[C@H](NC(=O)C(=O)Nc1cccc(Cl)c1)C(=O)N[C@@H](CC1CCCNC1=O)C(=O)CO` (stereo partly drawn) [Compound 102, N^1-(3-chlorophenyl)-N^2-((S)-1-(((S)-4-hydroxy-3-oxo-1-((S)-2-oxopiperidin-3-yl)butan-2-yl)amino)-4,4-dimethyl-l-oxopentan-2-yl)oxalamide] was tested. Which EC50 did it give?
A: < 0.05 µM

Q: `CC(C)CC(=O)OCC(=O)[C@H](C[C@@H]1CCNC1=O)NC(=O)[C@H](CC(C)C)NC(=O)C(=O)Nc1ccccc1F` [Compound 103, (S)-3-((S)-2-(2-((2-fluorophenyl)amino)-2-oxoacetamido)-4-methylpentanamido)-2-oxo-4-((S)-2-oxopyrrolidin-3-yl)butyl 3-methylbutanoate] was tested. Which EC50 did it give?
A: 0.05 to 0.2 µM

Q: `CC(C)CC(=O)OCC(=O)[C@H](C[C@@H]1CCCNC1=O)NC(=O)[C@H](CC(C)C)NC(=O)C(=O)Nc1ccccc1F` [Compound 104, (S)-3-((S)-2-(2-((2-fluorophenyl)amino)-2-oxoacetamido)-4-methylpentanamido)-2-oxo-4-((S)-2-oxopiperidin-3-yl)butyl 3-methylbutanoate] was tested. Which EC50 did it give?
A: 0.05 to 0.2 µM

Q: How did the EC50 turn out when `CC(=O)OCC(=O)[C@H](C[C@@H]1CCCNC1=O)NC(=O)[C@H](CC(C)C)NC(=O)C(=O)Nc1ccccc1F` [Compound 105, (S)-3-((S)-2-(2-((2-fluorophenyl)amino)-2-oxoacetamido)-4-methylpentanamido)-2-oxo-4-((S)-2-oxopiperidin-3-yl)butyl acetate] was run?
A: 0.05 to 0.2 µM

Q: How did the EC50 turn out when `CC(=O)OCC(=O)[C@H](C[C@@H]1CCNC1=O)NC(=O)[C@H](CC(C)C)NC(=O)C(=O)Nc1ccccc1F` [Compound 106, (S)-3-((S)-2-(2-((2-fluorophenyl)amino)-2-oxoacetamido)-4-methylpentanamido)-2-oxo-4-((S)-2-oxopyrrolidin-3-yl)butyl acetate] was run?
A: 0.05 to 0.2 µM

Q: Which EC50 does the source give for `CC(C)C[C@H](NC(=O)C(=O)Nc1ccccc1F)C(=O)N[C@@H](C[C@@H]1CCCNC1=O)C(=O)COC(=O)OC(C)C` [Compound 107, (S)-3-((S)-2-(2-((2-fluorophenyl)amino)-2-oxoacetamido)-4-methylpentanamido)-2-oxo-4-((S)-2-oxopiperidin-3-yl)butyl isopropyl carbonate] here?
A: < 0.05 µM

Q: How did the EC50 turn out when `CC(C)C[C@H](NC(=O)C(=O)Nc1ccccc1F)C(=O)N[C@@H](C[C@@H]1CCNC1=O)C(=O)COC(=O)OC(C)C` [Compound 108, (S)-3-((S)-2-(2-((2-fluorophenyl)amino)-2-oxoacetamido)-4-methylpentanamido)-2-oxo-4-((S)-2-oxopyrrolidin-3-yl)butyl isopropyl carbonate] was run?
A: 0.05 to 0.2 µM

Q: How did the EC50 turn out when `O=C(N[C@@H](CC1CC1)C(=O)N[C@@H](C[C@@H]1CCCNC1=O)C(=O)CO)C(=O)NC12CCC(F)(CC1)CC2` [Compound 110, N^1-((S)-3-cyclopropyl-1-(((S)-4-hydroxy-3-oxo-1-((S)-2-oxopiperidin-3-yl)butan-2-yl)amino)-1-oxopropan-2-yl)-N^2-(4-fluorobicyclo[2.2.2]octan-1-yl)oxalamide] was run?
A: > 1 µM

Q: With `CC1(C[C@H](NC(=O)C(=O)NC23CC(F)(C2)C3)C(=O)N[C@@H](C[C@@H]2CCCNC2=O)C(=O)CO)CCC1` [Compound 111, N^1-(3-fluorobicyclo[1.1.1]pentan-1-yl)-N^2-((S)-1-(((S)-4-hydroxy-3-oxo-1-((S)-2-oxopiperidin-3-yl)butan-2-yl)amino)-3-(1-methylcyclobutyl)-1-oxopropan-2-yl)oxalamide] as the molecule, how does the EC50 read?
A: 0.2 to 0.5 µM

Q: Which EC50 does the source give for `CC(C)(C)C[C@H](NC(=O)C(=O)Nc1cccc(C(F)(F)F)n1)C(=O)N[C@@H](C[C@@H]1CCCNC1=O)C(=O)CO` [Compound 112] here?
A: 0.5 to 1 µM

Q: With `CC1(C[C@H](NC(=O)C(=O)NC(C)(C)C)C(=O)N[C@@H](C[C@@H]2CCCNC2=O)C(=O)CO)CCC1` [Compound 113, N^1-(tert-butyl)-N^2-((S)-1-(((S)-4-hydroxy-3-oxo-1-((S)-2-oxopiperidin-3-yl)butan-2-yl)amino)-3-(1-methylcyclobutyl)-1-oxopropan-2-yl)oxalamide] as the molecule, how does the EC50 read?
A: 0.05 to 0.2 µM

Q: `CC(C)C[C@H](NC(=O)C(=O)NC(C)(C)C)C(=O)N[C@@H](C[C@@H]1CCCNC1=O)C(=O)CO` [Compound 115, N^1-(tert-butyl)-N^2-((S)-1-(((S)-4-hydroxy-3-oxo-1-((S)-2-oxopiperidin-3-yl)butan-2-yl)amino)-4-methyl-1-oxopentan-2-yl)oxalamide] was tested. Which EC50 did it give?
A: > 1 µM

Q: `CC(C)CCC(=O)N1CC2(CC2)C[C@H]1C(=O)N[C@H](C#N)C[C@@H]1CCNC1=O` [Compound 117, (S)-N-((S)-1-cyano-2-((S)-2-oxopyrrolidin-3-yl)ethyl)-5-(4-methylpentanoyl)-5-azaspiro[2.4]heptane-6-carboxamide] was tested. Which EC50 did it give?
A: > 1 µM

Q: `CCCCCCC(=O)OCC(=O)[C@H](C[C@@H]1CCNC1=O)NC(=O)[C@H](CC(C)C)NC(=O)c1cc2ccccc2[nH]1` [Compound 118, (S)-3-((S)-2-(1H-indole-2-carboxamido)-4-methylpentanamido)-2-oxo-4-((S)-2-oxopyrrolidin-3-yl)butyl heptanoate] was tested. Which EC50 did it give?
A: 0.05 to 0.2 µM

Q: With `CCCCCCC(=O)OCC(=O)[C@H](C[C@@H]1CCNC1=O)NC(=O)[C@H](CC(C)C)NC(=O)c1cc2c(OC)cccc2[nH]1` [Compound 119, (S)-3-((S)-2-(4-methoxy-1H-indole-2-carboxamido)-4-methylpentanamido)-2-oxo-4-((S)-2-oxopyrrolidin-3-yl)butyl heptanoate] as the molecule, how does the EC50 read?
A: 0.05 to 0.2 µM

Q: `CC(C)C[C@H](NC(=O)OCc1cccc(Cl)c1)C(=O)N[C@@H](C[C@@H]1CCNC1=O)C(=O)COC(=O)C(C)C` [Compound 120, (S)-3-((S)-2-((((3-chlorobenzyl)oxy)carbonyl)amino)-4-methylpentanamido)-2-oxo-4-((S)-2-oxopyrrolidin-3-yl)butyl isobutyrate] was tested. Which EC50 did it give?
A: > 1 µM

Q: For `CC(C)C[C@H](NC(=O)OCc1cccc(Cl)c1)C(=O)N[C@@H](C[C@@H]1CCNC1=O)C(=O)CO` [Compound 122, 3-chlorobenzyl ((S)-1-(((S)-4-hydroxy-3-oxo-1-((S)-2-oxopyrrolidin-3-yl)butan-2-yl)amino)-4-methyl-1-oxopentan-2-yl)carbamate], which EC50 is on record?
A: > 1 µM

Q: How did the EC50 turn out when `COc1cccc2[nH]c(C(=O)N[C@@H](CC(C)C)C(=O)N[C@@H](C[C@@H]3CCNC3=O)C(=O)COC(=O)C3CCN(C4CCCCC4)CC3)cc12` [Compound 123, (S)-3-((S)-2-(4-methoxy-1H-indole-2-carboxamido)-4-methylpentanamido)-2-oxo-4-((S)-2-oxopyrrolidin-3-yl)butyl 1-cyclohexylpiperidine-4-carboxylate] was run?
A: 0.5 to 1 µM

Q: `COc1cccc2[nH]c(C(=O)N[C@@H](CC(C)C)C(=O)N[C@@H](C[C@@H]3CCNC3=O)C(=O)COC(=O)C3CCC(N4CCCCC4)CC3)cc12` (stereo partly drawn) [Compound 124, (S)-3-((S)-2-(4-methoxy-1H-indole-2-carboxamido)-4-methylpentanamido)-2-oxo-4-((S)-2-oxopyrrolidin-3-yl)butyl 4-(piperidin-1-yl)cyclohexane-1-carboxylate] was tested. Which EC50 did it give?
A: > 1 µM

Q: With `O=C[C@H](C[C@@H]1CCNC1=O)NC(=O)[C@H](CC1CC1)NC(=O)c1cc(-c2ccccc2F)on1` [Compound 125, N-((S)-3-cyclopropyl-1-oxo-1-(((S)-1-oxo-3-((S)-2-oxopyrrolidin-3-yl)propan-2-yl)amino)propan-2-yl)-5-(2-fluorophenyl)isoxazole-3-carboxamide] as the molecule, how does the EC50 read?
A: 0.05 to 0.2 µM

Q: How did the EC50 turn out when `CC(C)C[C@H](NC(=O)c1cc(-c2ccccc2F)on1)C(=O)N[C@H](C=O)C[C@@H]1CCCNC1=O` [Compound 126, 5-(2-fluorophenyl)-N-((S)-4-methyl-1-oxo-1-(((S)-1-oxo-3-((S)-2-oxopiperidin-3-yl)propan-2-yl)amino)pentan-2-yl)isoxazole-3-carboxamide] was run?
A: 0.05 to 0.2 µM

Q: `CC(C)C[C@H](NC(=O)c1cc(-c2ccccn2)on1)C(=O)N[C@H](C=O)C[C@@H]1CCCNC1=O` [Compound 127, N-((S)-4-methyl-1-oxo-1-(((S)-1-oxo-3-((S)-2-oxopiperidin-3-yl)propan-2-yl)amino)pentan-2-yl)-5-(pyridin-2-yl)isoxazole-3-carboxamide] was tested. Which EC50 did it give?
A: 0.5 to 1 µM

Q: `CC(C)C[C@H](NC(=O)c1cc(-c2ccccn2)on1)C(=O)N[C@H](C=O)C[C@@H]1CCNC1=O` [Compound 128, N-((S)-4-methyl-1-oxo-1-(((S)-1-oxo-3-((S)-2-oxopyrrolidin-3-yl)propan-2-yl)amino)pentan-2-yl)-5-(pyridin-2-yl)isoxazole-3-carboxamide] was tested. Which EC50 did it give?
A: > 1 µM

Q: `COc1cccc2[nH]c(C(=O)N[C@@H](CC(C)C)C(=O)N[C@@H](C[C@@H]3CCCNC3=O)C(=O)CO)cc12` [Compound 129, N-((S)-1-(((S)-4-hydroxy-3-oxo-1-((S)-2-oxopiperidin-3-yl)butan-2-yl)amino)-4-methyl-1-oxopentan-2-yl)-4-methoxy-1H-indole-2-carboxamide] was tested. Which EC50 did it give?
A: 0.5 to 1 µM

Q: How did the EC50 turn out when `CC1(C)[C@@H]2[C@@H](C(=O)N[C@H](C#N)C[C@@H]3CCCNC3=O)N(C(=O)c3ccnc(C(F)(F)F)c3)C[C@@H]21` [Compound 130, (1R,2S,5S)-N-((S)-1-cyano-2-((S)-2-oxopiperidin-3-yl)ethyl)-6,6-dimethyl-3-(2-(trifluoromethyl)isonicotinoyl)-3-azabicyclo[3.1.0]hexane-2-carboxamide] was run?
A: > 1 µM

Source: patent publication US20230033285A1, “Protease Inhibitors for Treatment of Coronavirus Infections” (The Scripps Research Institute, priority 2021, published 2023)
